Among the data in PubChem BioAssay AID2124 (Sanford-Burnham Center for Chemical Genomics, 2009) are z-score and cell count values, retold here.

Inconclusive results are not listed. Active and inactive are the calls of the source. The rule behind the calls is not given here; tested in MIN6 cells.

The experiment can be described thus: cell-permeable autofluorescent compounds in GFP channel, dose response, artefact control, imaging, high-content imaging (AID 2124).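 For all read-outs here: cells exposed to compound for 48 hours before fixing.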 The settings on record: cells, GFP-channel autofluorescence, high-content imaging, at 10 µM; for z-score: stronger effect = higher value.

As to `Cc1cc(C2C(C#N)=C(N)Oc3n[nH]c(C)c32)c(C)s1` (stereo not given), the z-score was -0.25 (inactive) and the cell count was 3010 cells.

For `Fc1ccc(C2NCCn3cccc32)cc1` (stereo not given), the z-score is -0.38 (inactive) and the cell count amounted to 2950 cells.

Regarding `CCCc1cc(=O)[nH]c(SCC(=O)NCCCC(=O)OCC)n1`, the z-score was -0.33 (inactive) and the cell count turned out to be 3040 cells.

As to `Cc1cc(C)cc(NC(=O)/C=C/c2ccc([N+](=O)[O-])s2)c1`, the z-score was 0.02 and the cell count is 960 cells.

With `COCCCNc1c2c3c(cccc3[nH]c1=O)C(=O)c1ccccc1-2`, the z-score was 1.79 and the cell count worked out at 2800 cells.

As to `CCN(CC)c1ccc(/C=C2\SC(=O)N(C(C)C)C2=O)o1`, the z-score was 0.48 and the cell count was found to be 941 cells.

As for `CC(C)NC(=O)NC(=O)COC(=O)c1cccc(S(=O)(=O)N2CCCCC2)c1`, the z-score is -0.39 (inactive) and the cell count worked out at 3040 cells.

With `Cc1ccc(-c2cc(-c3ccco3)c3c(N)c(C(=O)NN)oc3n2)cc1`, the z-score is -0.32 (inactive) and the cell count amounted to 2700 cells.

Take `O=C(NCCN1CCCC1)C1(S(=O)(=O)c2ccc(Cl)cc2)CC1`: the z-score is -0.33 (inactive) and the cell count amounted to 2860 cells.

Turning to `CCN(CC)c1ccc(/C=C(/C#N)c2nc3ccc(C)cc3[nH]2)c(OC(C)C)c1`, the z-score was 2.57 and the cell count stood at 1480 cells.

With `CCOC(=O)c1nnn(-c2nonc2N)c1-c1ccc(OCC)cc1`, the z-score was -0.39 (inactive) and the cell count is 3520 cells.

As for `O=C(C1=NN(c2ccccc2)C2C(=O)N(c3cccc(Cl)c3)C(=O)C12)c1ccccc1` (stereo not given), the z-score was -0.32 (inactive) and the cell count turned out to be 3140 cells.

Take `CN1/C(=C\C=C2/C(=O)Oc3ccccc3C2=O)C(C)(C)c2ccccc21`: the z-score was 3.27 and the cell count worked out at 3310 cells.

For `CN(c1cccc(Cl)c1)S(=O)(=O)c1cccc(C(=O)NC2=NCCS2)c1`, the z-score was -0.33 (inactive) and the cell count was 3260 cells.

For `Nc1c(C(=O)N/N=C/c2cccnc2)oc2nc(-c3ccco3)cc(-c3ccco3)c12`, the z-score was -0.32 (inactive) and the cell count was 2960 cells.

For `CCOC(=O)CC1C(=O)NCCN1c1nc2ccc(C)cn2c(=O)c1/C=C1\SC(=S)N(CC(C)C)C1=O` (stereo not given), the z-score is 0.66 and the cell count was 3220 cells.

Turning to `NS(=O)(=O)c1cccc2cccnc12`, the z-score was -0.33 (inactive) and the cell count stood at 3060 cells.

Consider `COc1ccc(OCCn2cc(/C(N)=N/O)c3ccccc32)cc1`, for which the z-score is -0.33 (inactive) and the cell count was 2930 cells.

As to `C/C(=N\S(=O)(=O)c1ccc(C)cc1)N1CCN(S(=O)(=O)c2ccccc2)C1`, the z-score was -0.38 (inactive) and the cell count was found to be 3140 cells.

For the molecule `Cn1c(C(=O)N2CCC(C(=O)N3CCN(Cc4ccc5c(c4)OCO5)CC3)CC2)cc2sccc21`, the z-score is -0.39 (inactive) and the cell count was 2820 cells.

As to `COCCN1CN(S(=O)(=O)c2ccccc2)c2nc3ccccc3nc21`, the z-score was -0.38 (inactive) and the cell count amounted to 3380 cells.

For the molecule `CCN1CC=C2C(C#N)=C(N)C(C#N)(C#N)[C@H](c3cccc(OC)c3OC)[C@H]2C1`, the z-score is 0.28 and the cell count turned out to be 2790 cells.

As for `Cc1ccc([N+](=O)[O-])cc1NC(=O)c1cccs1`, the z-score is -0.33 (inactive) and the cell count came to 3030 cells.

For the molecule `O=C(NN=C1CCN(Cc2ccccc2)CC1)c1cccc(S(=O)(=O)Nc2ccccc2Cl)c1`, the z-score was -0.38 (inactive) and the cell count turned out to be 3200 cells.

Turning to `CN1/C(=C\C=C2C(=O)NC(=S)NC2=O)C(C)(C)c2ccccc21`, the z-score was 3.61 and the cell count was 2700 cells.

As to `Cc1nn(-c2c(Cl)cc(Cl)cc2Cl)c(=O)c2ccccc12`, the z-score was -0.33 (inactive) and the cell count was found to be 3220 cells.

On to `CCOC(=O)CC1C(=O)NCCN1S(=O)(=O)c1ccc(Cl)cc1Cl` (stereo not given), for which the z-score is -0.33 (inactive) and the cell count is 3500 cells.

On to `CC1CN(C(=O)CCn2c(=O)oc3ccccc32)CC(C)O1` (stereo not given), for which the z-score is -0.39 (inactive) and the cell count turned out to be 3070 cells.

In the case of `C=CCC(c1ccccc1)N(C(C)=O)c1ccco1` (stereo not given), the z-score was -0.33 (inactive) and the cell count worked out at 3430 cells.

As for `Cc1cc(N2C(=O)c3ccccc3C2=O)n(C)n1`, the z-score is -0.39 (inactive) and the cell count worked out at 2960 cells.

Turning to `CS(=O)(=O)ON=C1CCN(S(=O)(=O)c2ccccc2)CC1`, the z-score is -0.33 (inactive) and the cell count was found to be 3400 cells.

Consider `O=c1[nH]c2ccccc2nc1/C=C/c1ccc(F)cc1`, for which the z-score is -0.32 (inactive) and the cell count was determined as 3060 cells.

As for `N/C(=N\OC(=O)C1CCCCC1)c1cccc([N+](=O)[O-])c1`, the z-score was -0.33 (inactive) and the cell count turned out to be 3090 cells.

For `CCCCN1C(=O)/C(=C/C=C2\Oc3ccccc3N2CC)SC1=S`, the z-score is 1.42 and the cell count amounted to 3450 cells.

On to `COc1cc(Cl)c(C)cc1NC(=O)CN(C)Cc1cccc(OC)c1OC`, for which the z-score is -0.26 (inactive) and the cell count came to 2910 cells.

On to `CCCOc1ccc(-c2nn(-c3ccccc3)cc2/C=C2\SC(=S)N(C3CCS(=O)(=O)C3)C2=O)cc1` (stereo not given), for which the z-score was -0.23 (inactive) and the cell count was found to be 2830 cells.

For `Cc1cccc(-c2ncc(CN3CCCC(CO)(Cc4ccccc4C)C3)cn2)c1` (stereo not given), the z-score was -0.35 (inactive) and the cell count was 3340 cells.

Turning to `CC(C)OC(=O)CN1C(=O)S/C(=C/c2ccc(N3CCCCC3)o2)C1=O`, the z-score is 0.56 and the cell count is 2120 cells.

Consider `CN1/C(=C/C=C(C#N)C#N)C=Cc2ccccc21`, for which the z-score was -0.35 (inactive) and the cell count came to 2500 cells.

Regarding `CC1=NNC(=O)C1CCC(=O)N/N=C/c1ccc(C)cc1` (stereo not given), the z-score was -0.39 (inactive) and the cell count came out at 3320 cells.

On to `Cc1nn(-c2ccccc2)c(C)c1NC(=O)CCl`, for which the z-score was -0.33 (inactive) and the cell count came to 1910 cells.

As for `C=CCNC(=O)C1CC2Cn3c(nc4cc5ccccc5cc43)C2N1C` (stereo not given), the z-score is -0.39 (inactive) and the cell count was 3390 cells.

In the case of `CN(C)CCOCCOc1ccccc1-c1ccccc1`, the z-score was -0.33 (inactive) and the cell count was 3130 cells.

Consider `Cc1ccc(N2C(=O)c3cccc4c(N5CCN(C)CC5)ccc(c34)C2=O)c2cccnc12`, for which the z-score was 0.07 and the cell count worked out at 1800 cells.

As to `CCCSc1nc2sc3c(c2c(=O)[nH]1)CCN(Cc1ccccc1)C3`, the z-score was -0.3 (inactive) and the cell count is 3160 cells.

As to `CCCNC(=O)N1CCC(C(=O)c2ccc(Cl)cc2)CC1`, the z-score is -0.38 (inactive) and the cell count is 2970 cells.

As for `Cc1cc(C)c(C#N)c(SCC2COc3ccccc3O2)n1` (stereo not given), the z-score was -0.33 (inactive) and the cell count worked out at 3670 cells.

With `O=[N+]([O-])c1ccc(N/N=C/c2sc(N3CCOCC3)nc2-c2ccccc2)c(S(=O)(=O)Nc2ccccc2Cl)c1`, the z-score was 0.01 and the cell count turned out to be 144 cells.

On to `CN1C=CC2=C(C#N)C(N)C(C#N)(C#N)C(c3ccccc3)C2C1` (stereo not given), for which the z-score was 0.32 and the cell count is 2840 cells.

For the molecule `COc1cc(C)nc(N2CCCC(C(=O)Nc3cccc(Cl)c3C)C2)n1` (stereo not given), the z-score is -0.38 (inactive) and the cell count came out at 3090 cells.

For the molecule `OC(COc1cccc2ccccc12)CN1CCN(c2ccccc2Cl)CC1` (stereo not given), the z-score was -0.39 (inactive) and the cell count was 3270 cells.

With `CCS(=O)(=O)c1ccc2oc(SCC(=O)NC3CCCC(C)C3C)nc2c1` (stereo not given), the z-score is -0.26 (inactive) and the cell count came out at 2950 cells.

As to `CCOc1ccc(OCCCCn2ccnc2)cc1`, the z-score was -0.39 (inactive) and the cell count came to 2900 cells.

As for `O=C1CN(C(=O)COc2ncnc3ccccc23)c2ccccc2N1`, the z-score is -0.38 (inactive) and the cell count was 3020 cells.

Regarding `O=C(N/N=C\c1cn(-c2ccccc2)nc1-c1ccccc1)c1ccc(Br)o1`, the z-score is -0.32 (inactive) and the cell count was 626 cells.

For `CCn1ncc(Br)c1C(=O)Nc1sc2c(c1C(N)=O)CCC2`, the z-score is -0.39 (inactive) and the cell count turned out to be 3350 cells.

`CCCNC(=O)Cn1c(=O)/c(=C\c2ccc(-c3ccc([N+](=O)[O-])cc3)o2)s/c1=C\C(=O)C(C)(C)C`: the z-score was 2.07 and the cell count is 3100 cells.

For the molecule `CCOc1cc(C)c(S(=O)(=O)Nc2ccc3cn[nH]c3c2)cc1C`, the z-score was -0.33 (inactive) and the cell count is 1550 cells.

As for `CN(C)c1nc(N)nc(/C(C#N)=C/C2CC3C=CC2C3)n1` (stereo not given), the z-score is -0.33 (inactive) and the cell count was 2780 cells.

Take `O=C(NCCc1csc(-c2ccccc2)n1)c1ccccc1F`: the z-score is -0.25 (inactive) and the cell count was determined as 3010 cells.

Take `CC(=O)c1c(COC(=O)c2ccncc2)nc2ccccc2[n+]1[O-]`: the z-score was -0.33 (inactive) and the cell count worked out at 2880 cells.

For `Cc1ccc(NC(=O)CCn2cccc2)cc1Cl`, the z-score is -0.33 (inactive) and the cell count worked out at 3190 cells.

On to `CN(C)c1ccc(C(=O)N/N=C/c2cc(Br)cc(Br)c2O)cc1`, for which the z-score is -0.38 (inactive) and the cell count came out at 2500 cells.

Turning to `Cc1ccc(NC(=O)CCl)c(C)c1`, the z-score was -0.33 (inactive) and the cell count worked out at 2480 cells.

With `Cc1ccc(C(=O)NN2C(=O)/C(=C/c3cn(C)c4ccccc34)SC2=S)cc1`, the z-score was -0.27 (inactive) and the cell count was 3060 cells.
